Laboratory results reported in patent publication US20250205229A1, “DRUG FOR TREATING OR PREVENTING CHARCOT-MARIE-TOOTH DISEASE” (Kyoto University, priority 2022, published 2025).
Structures can show the parent of a compound that is named as a salt.

What was measured:
[1] = system: MFN1 gene; test: Screening for MFN1 mRNA expression by qPCR in motor neurons derived from iPS cells of CMT patients with MFN2 mutations; format: cell-based, human; conditions: relative to vehicle (DMSO) defined as 1, motor neurons having the mutated MFN2 gene, compound added on day 10, RNA extracted on day 12
Source text: (§1) iPS cells established according to the method described in NPL 3 were used. The iPS cells were derived from peripheral-blood mononuclear cells (PBMCs) from CMT2 patients with MFN2 gene mutations (CMT1 (R94Q) and CMT2 (H128Y)) and healthy subjects without MFN2 mutations (Healthy). A feeder-free medium was used to perform maintenance culture of the iPS cells.
(§2) mRNA was extracted, and mRNA expression levels of MFN1 and MFN2 were quantified by qPCR.
(§3) The overview of the screening method is shown in the upper left of FIG. 2. Constructs expressing Lhx3, Ngn2, and Isl1 under tetracycline induction were introduced into the iPS cells using PiggyBac vectors, whereby stable lines were generated. Doxycycline was added to the iPS cells, and the iPS cells were cultured for 7 days using a neuro-differentiation medium to generate motor neurons (Imamura et al. Sci Transl Med 2017). […]
(§4) Screening was performed to search for existing drugs that increase the expression levels of the MIFN1 gene or MFN2 gene using the motor neurons having the mutated MFN2 gene. […] The expression levels of the MFN1 gene and the MFN2 gene are expressed as relative values with the mRNA expression levels thereof when a vehicle (DMSO) was administered being defined as 1.

[2] = system: MFN2 gene; test: Screening for MFN2 mRNA expression by qPCR in motor neurons derived from iPS cells of CMT patients with MFN2 mutations; format: cell-based, human; conditions: relative to vehicle (DMSO) defined as 1, motor neurons having the mutated MFN2 gene, compound added on day 10, RNA extracted on day 12
Source text: as §1, §2, §3, §4

Structure (SMILES)	Relative expression level of the MFN1 gene [1]	Relative expression level of the MFN2 gene [2]
CC(C)N=c1cc2n(-c3ccc(Cl)cc3)c3ccccc3nc-2cc1Nc1ccc(Cl)cc1 [Clofazimine, N,5-bis(4-chlorophenyl)-3-propan-2-yliminophenazin-2-amine]	1.889	1.197
CC[C@@H](CO)NC(=O)[C@@H]1C=C2c3cccc4[nH]cc(c34)C[C@H]2N(C)C1 [Methylergometrine Maleate, (6aR,9R)—N—((S)-1-hydroxybutan-2-yl)-7-methyl-4,6,6a,7,8,9-hexahydroindolo[4,3-fg]quinoline-9-carboxamide maleate]	2.007	3.676
